Measurements reported in ChEMBL document CHEMBL1201862, “PubChem BioAssay data set” (2004).
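96-well plates; 48 h exposure; 5 concentrations. Endpoints by linear interpolation between flanking doses. Not reached: highest tested concentration assigned. Abbreviation: GI50, concentration required for 50% inhibition of growth.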 Active and inactive are the calls of the source. Rule as the data show it: active = GI50 up to about 1.1 µM and inactive = higher.

How the values were obtained:
Experiment in all cases: NCI tumour cell line growth inhibition, 48 h
A498 = test system: A498
A549 = test system: A549
BT-549 = test system: BT-549
CCRF-CEM = test system: CCRF-CEM
HOP-62 = test system: HOP-62
HT-29 = test system: HT-29
LOX IMVI = test system: LOX IMVI
M14 = test system: M14
MDA-MB-435 = test system: MDA-MB-435
NCI-H522 = test system: NCI-H522
OVCAR-4 = test system: OVCAR-4
PC-3 = test system: PC-3
SF-539 = test system: SF-539
SK-MEL-28 = test system: SK-MEL-28
SK-MEL-5 = test system: SK-MEL-5
SR = test system: SR
SW-620 = test system: SW-620
T47D = test system: T47D
UACC-62 = test system: UACC-62
NCI/ADR-RES = test system: NCI/ADR-RES

SMILES	GI50 (A498)	GI50 (A549)	GI50 (BT-549)	GI50 (CCRF-CEM)	GI50 (HOP-62)	GI50 (HT-29)	GI50 (LOX IMVI)	GI50 (M14)	GI50 (MDA-MB-435)	GI50 (NCI-H522)	GI50 (OVCAR-4)	GI50 (PC-3)	GI50 (SF-539)	GI50 (SK-MEL-28)	GI50 (SK-MEL-5)	GI50 (SR)	GI50 (SW-620)	GI50 (T47D)	GI50 (UACC-62)	GI50 (NCI/ADR-RES)
NC1=C(Cl)C(=O)c2ccccc2C1=O	19.9 µM (inactive)	2.93 µM (inactive)	2.47 µM (inactive)	5.15 µM (inactive)	11.4 µM (inactive)	4.99 µM (inactive)	2.28 µM (inactive)	0.893 µM (active)	0.8 µM (active)	5.22 µM (inactive)	7.08 µM (inactive)	1.79 µM (inactive)	8.24 µM (inactive)	4.67 µM (inactive)	0.834 µM (active)	4.32 µM (inactive)	5.42 µM (inactive)	2.87 µM (inactive)	1.08 µM (active)	–
O=C(O)c1ccn(-c2cccc(-n3ccc(C(=O)O)n3)n2)n1	–	> 100 µM (inactive)	> 100 µM (inactive)	> 100 µM (inactive)	> 100 µM (inactive)	> 100 µM (inactive)	> 100 µM (inactive)	> 100 µM (inactive)	> 100 µM (inactive)	> 100 µM (inactive)	> 100 µM (inactive)	> 100 µM (inactive)	> 100 µM (inactive)	> 100 µM (inactive)	> 100 µM (inactive)	> 100 µM (inactive)	> 100 µM (inactive)	–	> 100 µM (inactive)	> 100 µM (inactive)
Cc1ccc(C(=O)N2CCN(C(=O)c3ccc(C)cc3)c3ccccc32)cc1	5.2 µM (inactive)	7.48 µM (inactive)	> 100 µM (inactive)	1.6 µM (inactive)	6.43 µM (inactive)	2.8 µM (inactive)	6.44 µM (inactive)	4.57 µM (inactive)	–	1.85 µM (inactive)	11.4 µM (inactive)	2.86 µM (inactive)	2.42 µM (inactive)	5.2 µM (inactive)	3.15 µM (inactive)	0.547 µM (active)	2.93 µM (inactive)	6.43 µM (inactive)	2.01 µM (inactive)	–
C=C1C(=O)CC2C1CC(=O)/C(C)=C/CCC(C)(O)C2O (stereo not given)	1.19 µM (inactive)	27.3 µM (inactive)	–	3.44 µM (inactive)	26.7 µM (inactive)	14.6 µM (inactive)	5.47 µM (inactive)	> 25.2 µM (inactive)	6.55 µM (inactive)	1.5 µM (inactive)	10.9 µM (inactive)	0.853 µM (active)	–	14.9 µM (inactive)	6.79 µM (inactive)	7.91 µM (inactive)	7.26 µM (inactive)	1.74 µM (inactive)	0.603 µM (active)	8.2 µM (inactive)
COc1ccc(/N=N/C(=NNC(=O)c2ccc(C)cc2)c2ccc(N(C)C)cc2)cc1	52 µM (inactive)	48.3 µM (inactive)	27.7 µM (inactive)	14 µM (inactive)	49.1 µM (inactive)	30.3 µM (inactive)	34.8 µM (inactive)	43.1 µM (inactive)	20.1 µM (inactive)	28.9 µM (inactive)	31.8 µM (inactive)	57.7 µM (inactive)	> 100 µM (inactive)	> 59.7 µM (inactive)	27.2 µM (inactive)	23.1 µM (inactive)	56.8 µM (inactive)	–	25.1 µM (inactive)	33.8 µM (inactive)
CCOP(=O)(OCC)/C(=C\n1c(=S)[nH]c2cc(C)ccc21)C(=O)OC	> 100 µM (inactive)	> 100 µM (inactive)	> 100 µM (inactive)	–	> 100 µM (inactive)	> 100 µM (inactive)	> 100 µM (inactive)	> 100 µM (inactive)	> 100 µM (inactive)	–	> 100 µM (inactive)	–	> 100 µM (inactive)	> 100 µM (inactive)	> 100 µM (inactive)	–	> 100 µM (inactive)	> 100 µM (inactive)	> 100 µM (inactive)	> 100 µM (inactive)
O=P1(c2ccccc2)c2ccccc2-c2ccccc21	–	> 100 µM (inactive)	65.2 µM (inactive)	55.5 µM (inactive)	> 100 µM (inactive)	–	> 100 µM (inactive)	> 10 µM (inactive)	> 100 µM (inactive)	> 100 µM (inactive)	–	55.3 µM (inactive)	> 100 µM (inactive)	> 100 µM (inactive)	44.4 µM (inactive)	–	> 100 µM (inactive)	–	82.2 µM (inactive)	–
O=C1CCC2(CC1CCSc1ccccc1)OCCO2 (stereo not given)	> 100 µM (inactive)	> 100 µM (inactive)	–	> 100 µM (inactive)	> 100 µM (inactive)	> 100 µM (inactive)	98.9 µM (inactive)	> 100 µM (inactive)	> 100 µM (inactive)	> 100 µM (inactive)	> 100 µM (inactive)	> 100 µM (inactive)	> 100 µM (inactive)	> 100 µM (inactive)	88.5 µM (inactive)	> 100 µM (inactive)	> 100 µM (inactive)	> 100 µM (inactive)	> 100 µM (inactive)	> 100 µM (inactive)
CC1(C)OCC(C2OC(OC(=O)c3ccc([N+](=O)[O-])cc3)C3OC(C)(C)OC23)O1 (stereo not given)	> 100 µM (inactive)	> 100 µM (inactive)	> 100 µM (inactive)	> 100 µM (inactive)	27.3 µM (inactive)	> 100 µM (inactive)	> 100 µM (inactive)	> 100 µM (inactive)	> 100 µM (inactive)	75.5 µM (inactive)	> 100 µM (inactive)	> 100 µM (inactive)	> 100 µM (inactive)	> 100 µM (inactive)	> 100 µM (inactive)	> 100 µM (inactive)	> 100 µM (inactive)	–	> 100 µM (inactive)	69.5 µM (inactive)
CCC/C(Cl)=N/OC(NC(=O)OCC)(C(F)(F)F)C(F)(F)F	> 100 µM (inactive)	> 100 µM (inactive)	–	22.1 µM (inactive)	> 100 µM (inactive)	22.4 µM (inactive)	17.9 µM (inactive)	17.9 µM (inactive)	18.6 µM (inactive)	> 100 µM (inactive)	17.6 µM (inactive)	98.9 µM (inactive)	16.7 µM (inactive)	26.5 µM (inactive)	23.8 µM (inactive)	23.1 µM (inactive)	19.8 µM (inactive)	45.4 µM (inactive)	48.1 µM (inactive)	34.5 µM (inactive)
NCCCN(CCCCN(CCCN)Cc1ccccc1)Cc1ccccc1	> 100 µM (inactive)	74.5 µM (inactive)	79.6 µM (inactive)	30.3 µM (inactive)	–	17.3 µM (inactive)	19.3 µM (inactive)	41.6 µM (inactive)	56.1 µM (inactive)	10.9 µM (inactive)	28.6 µM (inactive)	–	27.6 µM (inactive)	> 100 µM (inactive)	57.8 µM (inactive)	–	> 100 µM (inactive)	> 100 µM (inactive)	> 100 µM (inactive)	> 100 µM (inactive)
O=C1CCCC2=C1CC1=C(CCCC1=O)N2c1ccccc1C(=O)O	> 100 µM (inactive)	> 100 µM (inactive)	> 100 µM (inactive)	> 100 µM (inactive)	–	> 100 µM (inactive)	> 100 µM (inactive)	> 100 µM (inactive)	–	–	> 100 µM (inactive)	> 100 µM (inactive)	> 100 µM (inactive)	> 100 µM (inactive)	> 100 µM (inactive)	> 100 µM (inactive)	> 100 µM (inactive)	–	> 100 µM (inactive)	> 100 µM (inactive)
Cc1cccc2c(=O)c3cccc(CC(=O)O)c3oc12	> 100 µM (inactive)	> 100 µM (inactive)	–	> 100 µM (inactive)	> 100 µM (inactive)	> 100 µM (inactive)	> 100 µM (inactive)	> 100 µM (inactive)	> 100 µM (inactive)	> 100 µM (inactive)	> 100 µM (inactive)	> 100 µM (inactive)	> 100 µM (inactive)	> 100 µM (inactive)	> 100 µM (inactive)	> 100 µM (inactive)	> 100 µM (inactive)	> 100 µM (inactive)	> 100 µM (inactive)	> 100 µM (inactive)
c1ccc([P+](CCSCCSCC[P+](c2ccccc2)(c2ccccc2)c2ccccc2)(c2ccccc2)c2ccccc2)cc1	> 100 µM (inactive)	> 100 µM (inactive)	> 100 µM (inactive)	–	> 100 µM (inactive)	> 100 µM (inactive)	–	> 100 µM (inactive)	> 100 µM (inactive)	–	> 100 µM (inactive)	–	> 100 µM (inactive)	> 100 µM (inactive)	> 100 µM (inactive)	–	> 100 µM (inactive)	> 100 µM (inactive)	64.4 µM (inactive)	> 100 µM (inactive)
O=[N+]([O-])c1ccc(-c2nnc(C34CC5CC(CC(C5)C3)C4)o2)cc1	> 100 µM (inactive)	> 100 µM (inactive)	–	> 100 µM (inactive)	> 100 µM (inactive)	> 100 µM (inactive)	> 100 µM (inactive)	> 100 µM (inactive)	> 100 µM (inactive)	> 100 µM (inactive)	> 100 µM (inactive)	> 100 µM (inactive)	> 100 µM (inactive)	> 100 µM (inactive)	> 100 µM (inactive)	> 100 µM (inactive)	> 100 µM (inactive)	> 100 µM (inactive)	> 100 µM (inactive)	> 100 µM (inactive)
